Values after ≈ are worked out from the molar mass of the structure shown. Like-named read-outs stand apart in the source and are kept apart here.
What was measured:
Assay type in all cases: cell-based
[1] = test system: Staphylococcus aureus 0127; experiment: MIC, Staphylococcus aureus 0127
Text: (§1) *Macrolide antibioticsresistant A group strain (clinical isolates of
(§2) erythromycin, oleandomycin and 16member-ring-macrolide-resistant strain)

[2] = test system: Streptococcus pyogenes N.Y.5; experiment: MIC, Streptococcus pyogenes N.Y.5
[3] = test system: Staphylococcus aureus MS353AO; experiment: MIC, Staphylococcus aureus MS353AO
Text: as §1, §2

[4] = test system: Staphylococcus aureus 0116; experiment: MIC, Staphylococcus aureus 0116
Text: as §1, §2

[5] = test system: Streptococcus pyogenes 1022; experiment: MIC, Streptococcus pyogenes 1022
[6] = test system: Staphylococcus aureus ATCC 6538P; experiment: MIC, Staphylococcus aureus ATCC 6538P; conditions: ATCC6538P
[7] = test system: Staphylococcus aureus 0119; experiment: MIC, Staphylococcus aureus 0119
Text: as §1, §2

[8] = test system: Staphylococcus aureus MS353; experiment: MIC, Staphylococcus aureus MS353
[9] = Staphylococcus aureus 0127, macrolide-resistant A group strain, clinical isolate, read-out: MIC
[10] = Staphylococcus aureus 0116, macrolide-resistant A group strain, clinical isolate, read-out: MIC
[11] = Staphylococcus aureus 0119, macrolide-resistant A group strain, clinical isolate, read-out: MIC

| Compound | MIC [1, 9] | MIC [2] | MIC ([3]; Staphylococcus aureus, MS353AO) | MIC [4, 10] | MIC [5] | MIC [6] | MIC [7, 11] | MIC [8] | MIC ([1]; Staphylococcus aureus, 0127) | MIC ([5]; read-out: MIC) | MIC ([3]; Staphylococcus aureus MS353AO, macrolide-resistant A group strain, clinical isolate, read-out: MIC) | MIC ([4]; Staphylococcus aureus, 0116) | MIC ([7]; Staphylococcus aureus, 0119) |
| --- | --- | --- | --- | --- | --- | --- | --- | --- | --- | --- | --- | --- | --- |
| CCC1OC(=O)CC(O)C(C)C(OC2OC(C)CC(N(C)C)C2O)C(C)CC(C)C(=O)C=CC(C)=CC1COC1OC(C)C(O)C(OC)C1OC (stereo not shown) [Compound [1] R1 = H, 19-deformyl-4'-deoxy-desmycosin] | > 100 µg/mL | ≤ 0.05 µg/mL | 0.8 µg/mL (≈ 1.1 µM) | 0.8 µg/mL (≈ 1.1 µM) | > 100 µg/mL | ≤ 0.05 µg/mL | > 100 µg/mL | ≤ 0.05 µg/mL | – | – | – | – | – |
| CCC1OC(=O)CC(O)C(C)C(OC2OC(C)C(O)C(N(C)C)C2O)C(C)CC(C)C(=O)C=CC(C)=CC1COC1OC(C)CC(OC)C1OC (stereo not shown) [Compound [1] R1 = OH, 19-deformyl-4"-deoxy-desmycosin] | – | ≤ 0.05 µg/mL | 25 µg/mL (≈ 34.3 µM) | 3.1 µg/mL (≈ 4.26 µM) | – | 0.1 µg/mL (≈ 0.137 µM) | 12.5 µg/mL (≈ 17.2 µM) | ≤ 0.05 µg/mL | 6.3 µg/mL (≈ 8.65 µM) | 25 µg/mL (≈ 34.3 µM) | – | – | – |
| CCC1OC(=O)CC(O)C(C)C(OC2OC(C)C(O)C(N(C)C)C2O)C(CC=O)CC(C)C(=O)/C=C/C(C)=C/C1COC1OC(C)C(O)C(OC)C1OC (stereo not shown) [descomycin, 4'-demycarosyl tylosin] | > 100 µg/mL | ≤ 0.05 µg/mL | > 100 µg/mL | 3.1 µg/mL (≈ 4.02 µM) | – | 0.8 µg/mL (≈ 1.04 µM) | > 100 µg/mL | 0.8 µg/mL (≈ 1.04 µM) | – | > 100 µg/mL | – | – | – |
| CC[C@H]1OC(=O)[C@H](C)[C@@H](O[C@H]2C[C@@](C)(OC)[C@@H](O)[C@H](C)O2)[C@H](C)[C@@H](O[C@@H]2O[C@H](C)C[C@H](N(C)C)[C@H]2O)[C@](C)(O)C[C@@H](C)C(=O)[C@H](C)[C@@H](O)[C@]1(C)O [erythromycin] | – | ≤ 0.05 µg/mL | – | – | > 100 µg/mL | ≤ 0.05 µg/mL | – | 0.1 µg/mL (≈ 0.136 µM) | > 100 µg/mL | – | > 100 µg/mL | > 100 µg/mL | > 100 µg/mL |
| CO[C@@H]1[C@@H](O[C@@H]2O[C@H](C)[C@@H](O[C@H]3C[C@@](C)(O)[C@@H](OC(=O)CC(C)C)[C@H](C)O3)[C@H](N(C)C)[C@H]2O)[C@@H](CC=O)C[C@@H](C)[C@@H](O)/C=C/C=C/C[C@@H](C)OC(=O)C[C@H]1OC(C)=O [josamycin] | > 100 µg/mL | ≤ 0.05 µg/mL | > 100 µg/mL | > 100 µg/mL | – | 0.4 µg/mL (≈ 0.483 µM) | > 100 µg/mL | 0.8 µg/mL (≈ 0.966 µM) | – | > 100 µg/mL | – | – | – |

From patent US4415730A, “19-Deformyl-deoxy-desmycosin” (priority 1981, dated 1983)
